Assays:
Assay type in all cases: cell-based, human
[1] = tested on: Peripheral blood mononuclear cells (PBMC); test: Mixed lymphocyte reaction (MLR), [3H]-thymidine incorporation
Excerpt: (§1) Various models may be used for testing an immunosuppressive effect. In vivo, for example, different transplantation models are available. They are strongly influenced by different immunogenicities, depending on the donor and recipient species used and depending on the nature of the transplanted organ. The survival time of transplanted organs can thus be used to measure the suppression of the immune response. In vitro, there exist also various models. The most used are lymphocyte activation tests. Usually activation is measured via lymphocyte proliferation. Inhibition of proliferation thus always means immunosuppression under the experimental conditions applied. There exist different stimuli for lymphocyte activation: • coculture of lymphocytes of […] (MLR=mixed lymphocyte reaction): lymphocytes expressing different minor and major antigens of the HLA-DR type (=allogens) activate each other non-specifically. • CD3 assay: here there is an activation of the T-lymphocytes via an exogenously added antibody (OKT3). This antibody reacts against the CD3 molecule located on the lymphocyte membrane. This molecule has a […]. […] This molecule is also located on the lymphocyte membrane, and delivers strong costimulatory signals. […] Reagents
Mixed Lymphocyte Reaction
Peripheral blood mononuclear cells (PBMC) were isolated from heparinized peripheral blood by density gradient centrifugation over Lymphoprep (Nycomed, Maorstua, Norway). Allogeneic PBMC or EBV-transformed human B cells [RPMI1788 (ATCC name CCL156)] which strongly express B7-1 and B7-2 were used as stimulator calls after irradiation with 30 Gy. MLR was performed in triplicate wells. After 5 days incubation at 37° C., 1 μCi [^3H]-thymidine was added to each cup. After a further 16 hours incubation, cells were harvested and counted in a β-counter.
The percent suppression of proliferation by drugs was counted using the formula: […]

Highly purified T cells [2] = test: T cell proliferation induced by anti-CD3 mAb+PMA (BrdU); conditions: for IC50: read-out: IC50 aCD3
Excerpt: T cells were purified by removing non-T cells. Briefly, monocytes were removed by cold agglutination. The resulting lymphoid cells were further purified by a cell enrichment immunocolumn [Cellect Human T (Biotex, Edmonton, Alberta, Canada)] by a process of negative selection.
(§2) Measurements of T Cell Proliferations Induced by Anti-CD3 mAB+PMA or Anti-CD28 mAb+PMA
(§3) Highly purified T cells (10^6/ml) were stimulated by immobilized anti-CD3 or anti-CD28 mAb in the presence of PMA. Anti-CD3 mAb (CLB-CD3; CLB, Amsterdam, The Netherlands) were fixed on the 96-microwell plates by incubating the wells with 50 μl of mAb solution […] 50 μl (1/650 dilution in culture medium) was added directly to the wells. Further, 20 μl PMA (Sigma, St. Louis, Mo., USA) solution (final concentration: 0.5 ng/ml) was added. Subsequently, 20 μl of immunosuppressants were added by serial dilution in triplicate wells. Finally 100 μl of the T cell suspension (10^6/ml) was added. After 48-hour incubation at 37° C. in 5% CO2 20 μl BrdU (100 μM solution) (Cell Proliferation Elisa, Boehringer-Mannheim Belgium) was added to each well. After a further overnight incubation the T cell proliferation was measured using a calorimetric immunoassay for qualification of cell proliferation based on measurements of the incorporation of BrdU during DNA synthesis. The optical density (OD) was measured by a Behring EL311 place reader at 450 nm (reference wavelength: […]). The percent suppression of proliferation by drugs was counted using the formula: […]

Highly purified T cells [3] = test: T cell proliferation induced by anti-CD28 mAb+PMA (BrdU); conditions: anti-CD28 mAb+PMA pathway, read-out: IC50 aCD28
Excerpt: as §1
T cells were purified by removing non-T cells. Briefly, monocytes were removed by cold agglutination. The resulting lymphoid cells were further purified by a cell enrichment immunocolumn [Cellect Human T (Biotex, Edmonton, Alberta, Canada)] by a process of negative selection. More than 95% of the B cells were removed with this procedure. After depletion, the resulting T cell preparation was highly purified explaining these cells could not be activated by PHA or rIL-2 alone at concentrations capable of stimulating RBMC prior to deletion.
as §2, §3

[4] = lowest concentration giving 50% suppression of the MLR
[5] = Homo sapiens, PBMC, lowest concentration giving 50% suppression of the MLR
[6] = Homo sapiens, T-cell, anti-CD3 mAb+PMA pathway

Molecule	IC50 [1, 4]	IC50 (Highly purified T cells [2]; anti-CD3 mAb+PMA pathway)	IC50 (Highly purified T cells [3])	further results
1,3,7-trimethyl-8-(4-trifluoromethylfenyl)-xanthine [Compound 10]	50 µM	20 µM	30 µM	
1,3,7-tripropyl-8-(4-chlorofenyl)xanthine [Compound 118]	15 µM	15 µM	20 µM	
1,3,7-tripropyl-8-fenylxanthine [Compound 113]	20 µM	110 µM	90 µM	
1,3-dimethyl-7-allyl-8-[(4-trifluoromethyl)-fenyl]xanthine [Compound 82]	25 µM	80 µM	80 µM	
1,3-dimethyl-7-propyl-8-fenylxanthine [Compound 112]	20 µM	45 µM	40 µM	
1,3-dipropyl-2-thio-8-[4-((((N-2-aminoethyl)-amino)carbonyl)methyl)oxy)fenyl]xanthine [Compound 35]	50 µM	50 µM	70 µM	
1,3-dipropyl-8-[4(dimethylamino(ethyl(amino-(sulfonyl))))fenyl]xanthine [Compound 9]	25 µM	40 µM	50 µM	
1,3-dipropyl-8-[4-dimethylamino(propyl(amino-(sulfonyl))))fenyl]xanthine [Compound 40]	25 µM	60 µM	70 µM	
1,7-diallyl-3-methyl-8-fenylxanthine [Compound 8]	30 µM	35 µM	80 µM	
1,7-diallyl-3-propyl-8-(4-chlorofenyl)xanthine [Compound 119]	15 µM	50 µM	30 µM	
1,7-diallyl-3-propyl-8-fenylxanthine [Compound 114]	15 µM	85 µM	70 µM	
CC#Cn1c(=O)c2c(ncn2C)n(C)c1=O [Compound 1, 1-propynyl-3,7-dimethylxanthine]				IC50 [1, 5]: > 200 µM; IC50 (Highly purified T cells [2]; [6]): 150 µM; IC50 (Highly purified T cells [3]; Homo sapiens, T-cell): > 200 µM
C#CCn1cnc2c1c(=O)n(C)c(=O)n2CC#C [Compound 3, 1-methyl-3,7-dipropynylxanthine]	150 µM	150 µM	100 µM	
CCCn1c(=O)c2[nH]c(-c3ccsc3)nc2n(CCC)c1=O [Compound 15]		> 200 µM	170 µM	
Cn1c(=S)c2[nH]c(C3CCCC3)nc2n(C)c1=O [Compound 17]	80 µM	30 µM	40 µM	
Cn1cnc2c1c(=O)n(CCCC(=O)O)c(=O)n2C [Compound 23, 1-(3-carboxypropyl)-3,7-dimethylxanthine]				IC50 [1, 5]: > 200 µM; IC50 (Highly purified T cells [2]; [6]): > 200 µM; IC50 (Highly purified T cells [3]; Homo sapiens, T-cell): > 200 µM
CCOC(=O)CCCn1c(=O)c2c(ncn2C)n(C)c1=O [Compound 24, 1-(3-ethoxycarbonyl)propyl-3,7-dimethylxanthine]	> 200 µM	170 µM	150 µM	
CC(O)CCCCn1c(=O)c2c(ncn2C)n(C)c1=O (stereo not shown) [Compound 25]	> 200 µM	140 µM	160 µM	
CCCn1cnc2c1c(=O)n(CCCCC(C)O)c(=O)n2C (stereo not shown) [Compound 26]	100 µM	100 µM	100 µM	
CCCn1c(=O)c2[nH]c(-c3ccc(OCC(=O)O)cc3)nc2n(CCC)c1=S [Compound 28]	120 µM	150 µM	75 µM	
CCCn1c(=O)c2[nH]c(-c3ccc(OCC(=O)OCC)cc3)nc2n(CCC)c1=S [Compound 29]	> 200 µM	150 µM	130 µM	

Molecule	IC50 [1, 4]	IC50 (Highly purified T cells [2]; anti-CD3 mAb+PMA pathway)	IC50 (Highly purified T cells [3])	further results
Cn1c(-c2ccc(S(N)(=O)=O)cc2)nc2c1c(=O)[nH]c(=O)n2C [Compound 37]	> 200 µM	150 µM	150 µM	
CCCn1c(=O)c2[nH]c(-c3ccc(C(F)(F)F)cc3)nc2n(CCC)c1=O [Compound 48]	180 µM	160 µM	150 µM	
Cn1c(=O)c2[nH]c(-c3ccco3)nc2n(C)c1=O [Compound 58]	> 200 µM	160 µM	170 µM	
CCCn1c(=O)c2[nH]c(-c3ccco3)nc2n(CCC)c1=O [Compound 59]	15 µM	155 µM	135 µM	
Cn1c(=O)c2[nH]c(-c3ccco3)nc2n(C)c1=S [Compound 60]	> 200 µM		190 µM	
CCCn1c(=O)c2[nH]c(-c3ccco3)nc2n(CCC)c1=S [Compound 61]	100 µM	170 µM	110 µM	
Cn1c(=O)c2[nH]c(C3CCCC3)nc2n(C)c1=O [Compound 62]	> 200 µM	> 200 µM	190 µM	
CCCn1c(=O)c2[nH]c(C3CCCC3)nc2n(CCC)c1=O [Compound 63]	> 200 µM	135 µM	100 µM	
Cn1c(=O)c2[nH]c(C3CCCC3)nc2n(C)c1=S [Compound 64]	> 200 µM	> 200 µM	> 200 µM	
CCCn1c(=O)c2[nH]c(C3CCCC3)nc2n(CCC)c1=S [Compound 65]	> 200 µM	135 µM	75 µM	
Cn1c(=O)c2c(nc(C3CCCC3)n2C)n(C)c1=S [Compound 66]	> 200 µM	170 µM	170 µM	
C#CCn1c(=O)n(C)c(=O)c2c1ncn2C [Compound 67, 1,7-dimethyl-3-propynylxanthine]	> 200 µM	> 200 µM		
Cn1c(=O)c2[nH]cnc2n(CC(C)(C)C)c1=O [Compound 69]	120 µM	110 µM	45 µM	
Cn1cnc2c1c(=O)[nH]c(=O)n2CC(C)(C)C [Compound 70]	> 200 µM	180 µM	140 µM	
CC(C)n1c(=O)n(C)c(=O)c2[nH]cnc21 [Compound 71]	160 µM			
Cn1c(-c2ccc(C(F)(F)F)cc2)nc2c1c(=O)[nH]c(=O)n2C [Compound 83]	> 200 µM	> 200 µM	150 µM	
Cn1c(=O)c2[nH]c(-c3ccc(-c4ccccc4)cc3)nc2n(C)c1=O [Compound 115]	110 µM	> 200 µM	160 µM	
CCCn1c(=O)c2c(nc(-c3ccc(-c4ccccc4)cc3)n2CCC)n(CCC)c1=O [Compound 116, 1,3,7-tripropyl-8-(p-bifenyl)xanthine]	160 µM	45 µM	40 µM	
C=CCn1c(=O)c2c(nc(-c3ccc(-c4ccccc4)cc3)n2CC=C)n(CCC)c1=O [Compound 117, 1,7-diallyl-3-propyl-8-(p-bifenyl)xanthine]	15 µM	30 µM	30 µM	
Cn1c(=O)c2[nH]c(-c3ccc(S(N)(=O)=O)cc3)nc2n(C)c1=O [Compound 125]	160 µM	150 µM	90 µM	
C=CC[C@@H]1/C=C(\C)C[C@H](C)C[C@H](OC)[C@H]2O[C@@](O)(C(=O)C(=O)N3CCCC[C@H]3C(=O)O[C@H](/C(C)=C/[C@@H]3CC[C@@H](O)[C@H](OC)C3)[C@H](C)[C@@H](O)CC1=O)[C@H](C)C[C@@H]2OC [FK506, reference compound]				IC50 ([1]; Homo sapiens, PBMC, immunosuppressants for comparison): 0.001 µM; IC50 (Highly purified T cells [2]; Homo sapiens, T-cell, immunosuppressants for comparison, anti-CD3 mAb+PMA): 0.001 µM; activity in the anti-CD3+PMA test (Highly purified T cells [2]; in words): active

Source: patent US7253176B1, “Immunosuppressive effects of 8-substituted xanthine derivatives” (K.U. Leuven Research & Development, priority 2000, dated 2007)
